The test system of one test is SNU-398 cells. Nature of the test: Subcutaneous transplantation of peptide pre-treated SNU-398 cells into NOD/SCID mice. Type of test: in vivo. Conditions: for subcutaneous tumor volume / size: cells treated in vitro with 20 μM peptide. As for the experimental part: Cell viability was determined 72 hours after peptide treatments. Absorbance at 490 nm is directly correlated to cell viability. Wild type functional SALL4 peptide (wt), mutant non-functional SALL4 peptide (Mut.), trichostatin A (TSA), scrambled control peptide (Scr.), wild type peptide+PTEN inhibitor SF1670 (wt+Inh.) were given to the cells at the indicated concentration. PTEN inhibitor concentration was 400 nM. (31C, 31D) Western blot analyses of the effects of peptides on PTEN, AKT, and pAKT expression on SNU-398 (31C) and SNU-387 (31D) cells 72 hours following peptide treatments. 20 μM of wt or Scr. peptide or 100 nM of TSA was used. PTEN inhibitor concentration was 400 nM. (31E) Representative images show NOD/SCID mice transplanted with Scr peptide- and wt peptide-treated SNU-398 cells (left) and the dissected subcutaneous tumors (right). Arrow indicates subcutaneous tumor. (31F) Growth curve of subcutaneous tumors (left panel) and tumor weight of tumors dissected at day 26 post-transplantation (right panel). Results are mean±s.d. n=5; * P<0.05. (31G) Representative images show NOD/SCID mice transplanted with 3 million SNU-398 cells at the left flank and treated intraperitoneally for five consecutive days with 56 mg/kg body weight TAT-Mut. peptide or 60 mg/kg body weight wt peptide (top panel) and the dissected subcutaneous tumors (bottom). (31H) Tumor weight of tumors dissected at day 18 post-transplantation and post-treatment of mice treated intraperitoneally with TAT fusion peptides as described in 5 g. Results are mean±s.d. n=5; * P<0.05.
To test the therapeutic effect of this peptide in vivo, SNU-398 cells were subjected to in vitro treatment with 20 μM of wt or Scr. peptide and transplanted the peptide-treated cells subcutaneously into the flanks of NOD/SCID mice.

The subject of the next test is HL-60 cells. As to the kind of experiment: Cell viability assay (MTT/MTS). In kind it is cell-based, human. The following applies: HL-60, 48-72 h. As for the experimental part: FIG. 17: SALL4 peptide reduces the viability of leukemic HL-60 cells. HL60 human acute promyelocytic leukemia cells (ATCC), were cultured in RPMI medium with 10% FBS (Invitrogen). 5000 cells/well were seeded in 96 well plate. Peptides: MSRRKQAKPQHI-wt (SEQ ID NO: 1) and MSRRAQAKPQHI-mutant (SEQ ID NO: 6) were synthesized by Biosynthesis Inc. to 85% purity. Peptides and TSA were re-suspended in PBS and added to the final concentration as indicated. WT peptide was re-added 24 hours after the initial addition as indicated. Experiment was performed in triplicate. MTS assay was performed by adding 20 ul of the CellTiter 96® AQueous One Solution Reagent (Promega) directly to the cells in medium, incubating for 2 hours and then recording absorbance at 490 nm with a 96-well plate reader. The quantity of formazan product as measured by the amount of 490 nm absorbance is directly proportional to the number of living cells in culture.
Cell viability assay (MTT) (Invitrogen) was performed according to the manufacturer's instructions. Briefly—10000 cells were seeded in 100 ul medium in 96 well plates. The next day cells were treated as indicated on the figures. At the designated time after the treatment 20 ul of 5 mg/ml MTT solution was added to each well. After 3.5 h incubation at 37 C the medium was removed and the reaction was terminated with a solution of 4 mM HCl, 0.1% Nondet P-40 (NP40) all in isopropanol in dark on orbital shaker for […]. at room temperature. The absorbance was read at 590 nm with a reference filter of 620 nm in Spectromax M3 (ABI) spectrophotometer.
Multiple cell lines with or without SALL4 expression were chosen to test the biological effect(s) of this wt peptide. Wt or its control (Scr or Mut) peptide was delivered into tumor cells at various concentrations, and their effects on cells were evaluated at 48 or 72 hours post treatment by a MTT assay (Manufacture name). […] Since, as proposed herein, wt peptide can compete with SALL4 and release it from recruiting HDAC complex NuRD, the wt peptide would likely work as a HDAC inhibitor. Therefore, as a positive control, TSA, a broad HDAC inhibitor, was used in the same group of experiments along with the wt and Scr peptide.
Multiple leukemic and solid tumor cancer cell lines with high or low/no SALL4 expression (FIG. 10A) were chosen to test the biological effect(s) of the wild type peptide. Wild type or scrambled peptide was delivered into tumor cells at various concentrations, and their effects on cells were evaluated 72 hours post-treatment by the MTS cell viability assay. […] The effect of wild type peptide is SALL4-specific, as it had no effect on KBM5, an AML cell line with undetectable endogenous SALL4 expression. […] Therefore, expression of PTEN was evaluated in AN3CA cells along with other cell lines. […]

We go through two substances from patent US9365851B2, “Spalt-like transcription factor 4 (SALL4) and uses thereof” (National University of Singapore, priority 2011, dated 2016).

Entries after “also recorded” stand apart in the source; their conditions may differ.

For “Scr peptide: same 12 amino acids as the wt peptide, but in a scrambled sequence; negative control (SRMRQKIHPKIQ) [reference compound]”, the “subcutaneous tumor volume / size” value in the test with SNU-398 cells is reported as “grew into larger subcutaneous tumors”. Further, the cell viability entry with HL-60 cells was “remained unaffected”.

Regarding “H-MSRRKQAKPQHI-OH [wt peptide, MSRRKQAKPQHI]”, the “subcutaneous tumor volume / size” value in the test on SNU-398 cells was “significantly reduced”. The “tumor burden (weight post-dissection)” value with SNU-398 cells (day 26) was “the tumor load was reduced”. For the same substance, the cell viability entry is recorded as “decreased cell viability” in the test with HL-60 cells, “decrease in cell viability” in the test on HL-60 cells (listed as WT) and “decreased cell viability; also recorded: reduces the number of the living cells” in the test with HL-60 cells (listed as wild type peptide).
